5 molecules from US20260091051A1, “USE OF NMN FOR THE PREVENTION AND/OR TREATMENT OF PAIN, AND CORRESPONDING COMPOSITIONS” (Nuvamid SA, priority 2019, published 2026) can be followed below.

Series [1] has as its system cyclophosphamide-induced cystitis (visceral nociceptive pain) in female Sprague-Dawley rats. Put plainly: Visceral pain model of cyclophosphamide-induced cystitis in rats, von Frey filaments (Example 1). The class given is in vivo, rat. The conditions noted are these: for nociceptive threshold (threshold of tolerance to pain, allodynia): CYP-treated rats; for nociceptive threshold (threshold of tolerance to pain, allodynia) / nociceptive score: NMN 500 mg/kg or ibuprofen 300 mg/kg oral. As to the method:
The effectiveness of the use of NMN according to the invention was evaluated in rats in a model of nociceptive pain. More precisely, the model used is a visceral pain model. The administration of cyclophosphamide (CYP) serves as the means to simulate cystitis in rats.
The positive control is ibuprofen, a non-steroidal anti-inflammatory drug frequently prescribed to relieve nociceptive pain. The negative control is the carrier for NMN and ibuprofen, that is to say, distilled water.
For this study, 7-week-old female Sprague-Dawley rats were divided into three groups, each group comprising of 6 rats: • a control group who received 5 ml of distilled water (carrier); • a group treated with NMN at 500 mg/kg; and • a group treated with ibuprofen at 300 mg/kg.
The NMN is in the form of zwitterion.
After 24 hours of adaptation, a test to measure the threshold of pain tolerance of each animal was carried out with von Frey filaments prior to the start of the study. This measurement prior to any exposure to a painful stimulus makes it possible to obtain the baseline pain tolerance threshold level in the animals and serves as a negative control.
Von Frey filaments are used as a device for measuring the sensitivity of the skin to touch. The use of von Frey filaments makes it possible to test for allodynia and hyperalgesia in rodents. Briefly put, each filament corresponds to a given force. The filaments are applied in ascending order of increasing force to the animal's skin. The rodents in effect have a reflex to withdraw when an unexpected contact occurs. The withdrawal in response to a force exerted on the rodent is indicative of the animal's threshold of tolerance to pain. The use of von Frey filaments is commonly implemented for measurement of pain in rodents (Deuis J R, Dvorakova L S and Vetter I (2017) Methods Used to Evaluate Pain Behaviors in Rodents. Front. Mol. Neurosci. 10:284.).
In the present study, eight filaments in ascending order of increasing force, of 1 g, 2 g, 4 g, 6 g, 8 g, 10 g, 15 g, and 26 g, were used and applied three times each to the animal's abdomen, near the bladder. The animal's response was assessed as follows: • score 0: no response • score 1: retraction of the abdomen • score 2: stamping or changing of position of the animal • score 3: twitching, or curving or rounding of the abdomen, or licking of the area stimulated by the von Frey filament.
For each rat, the results are expressed as follows: • nociceptive threshold: first force level at which a response from the animal is observed (response score greater than or equal to 1). This indicates the lowest threshold of tolerance to pain for measuring allodynia; • nociceptive score: percentage of the maximum response for each filament. This indicates the overall pain response.
The animals of each of the groups receive either the carrier, or NMN at 500 mg/kg, or ibuprofen at 300 mg/kg administered via the oral route. After administration of the compounds to be tested (carrier, NMN, or ibuprofen), cyclophosphamide is injected via the intraperitoneal route into each rat. The cyclophosphamide induces strong inflammation in the bladder and simulates a pain induced by a urinary tract infection such as cystitis.
The test with the von Frey filaments is repeated at 2 hr and then subsequently at 4 hr after injection of the cyclophosphamide in order to measure the pain response of the animals.
The results were analysed by a one-way analysis of variance (ie one-way ANOVA) test supplemented by a Dunnett's test or by a two-way ANOVA analysis. With regard to statistical significance, * signifies that p<0.05, ** signifies that p<0.01, and *** signifies that p<0.001, as compared to the group treated with the carrier.

For series [2], the system named is acute cystitis induced by cyclophosphamide (CYP) in female Sprague-Dawley rats. Conditions: for nociceptive scores (CYP-induced visceral pain) / nociceptive threshold (CYP-induced allodynia): 500 mg/kg p.o., 15 min before CYP 150 mg/kg i.p.; for nociceptive scores (CYP-induced visceral pain): vs carrier; for visceral pain induced by the CYP (conclusion): single oral treatment 500 mg/kg. As to the method: Animals: Sprague-Dawley female rats, 7 weeks old as of their birth
Acute Cystitis Induced by CYP: The CYP was injected via intraperitoneal injection at 150 mg/kg in a final volume of 5 ml/kg of saline solution.
The rats were placed in individual Plexiglas boxes with a metal wire mesh floor and allowed to adapt to the chamber for a period of at least 30 minutes prior to the commencement of any testing. Eight von Frey filaments with increasing levels of force viz 1, 2, 4, 6, 8, 10, 15, and 26 g were used. Each calibrated filament was applied 3 times to the lower abdominal area, near the bladder.
• Score 0=no response • Score 1=retraction of the abdomen • Score 2=stamping or changing of position • Score 3=wheezing or squealing, or abdominal curvature, or licking of the site stimulated with von Frey filaments
For each rat, the results were expressed as follows: • Nociceptive threshold: first von Frey force level for which the stimulus is perceived as being painful (the score ≥1 is obtained)=>lowered threshold=allodynia • Nociceptive score: % of the maximum response (total=9 for 3 combined applications) for each filament=>Overall response to pain
Experimental Groups (6 Rats Per Group): • Group 1: Carrier (5 ml/kg)+CYP • Group 2: NMN (500 mg/kg)+CYP • Group 3: Compound A (500 mg/kg)+CYP • Group 4: Compound B (500 mg/kg)+CYP

Where [3] appears, read: T=2 h after CYP injection, vs carrier (FIG. 3B).
[4] abbreviates: T=4 h after CYP injection, vs carrier (FIG. 3C).

Read-outs that look alike come from different tables or passages of the source.

In the case of `CC(C)Cc1ccc(C(C)C(=O)O)cc1` (stereo not shown) [ibuprofen], the “nociceptive threshold (threshold of tolerance to pain, allodynia)” value is “significantly increase the threshold of tolerance to pain” in series [1] (T0, vs carrier (FIG. 3A)); “significantly increase the threshold of tolerance to pain” in series [1] (setting [3]); “significantly increase the threshold of tolerance to pain” in series [1] (setting [4]). For the same molecule, the nociceptive score result in series [1] (2 hours after CYP (FIG. 4B)) and in series [1] (4 hours after CYP (FIG. 4C)) was “reducing the nociceptive score” in each case.
For the molecule `NC(=O)c1ccc[n+]([C@@H]2O[C@H](COP(=O)([O-])O)[C@@H](O)[C@H]2O)c1` [NMN, nicotinamide mononucleotide], the “nociceptive scores (CYP-induced visceral pain)” value in series [2] (+2 hr) and in series [2] (+4 hr) was “significant decrease in the nociceptive scores” in each case. Moreover, the “nociceptive threshold (CYP-induced allodynia)” value in series [2] (+2 hr, vs carrier (FIG. 6A)) is reported as “slight increase in the nociceptive threshold”; in series [2] (+4 hr, vs carrier (FIG. 6B)) it was “slight increase in the nociceptive threshold”. For the same molecule, the “visceral pain induced by the CYP (conclusion)” value (from here on “visceral pain induced”) in series [2] (+2 hr) and in series [2] (+4 hr) was “relieved the visceral pain” throughout. Moreover, the “nociceptive threshold (threshold of tolerance to pain, allodynia)” value in series [1] (T0, vs carrier (FIG. 3A)) is reported as “increase the response threshold to nociceptive pain significantly”; in series [1] (setting [3]), “increase the response threshold to nociceptive pain significantly”; in series [1] (setting [4]), “increase the response threshold to nociceptive pain significantly”. In addition, the nociceptive score result in series [1] (2 hours after CYP (FIG. 4B)) and in series [1] (4 hours after CYP (FIG. 4C)) was “reducing the nociceptive score” in each case.
Turning to `NC(=O)c1ccc[n+]([C@H]2O[C@H](COP(=O)([O-])O)[C@@H](O)[C@H]2O)c1` [Compound A, alpha nicotinamide mononucleotide], the “nociceptive scores (CYP-induced visceral pain)” value in series [2] (+2 hr) was “decrease in the nociceptive scores”; in series [2] (+4 hr), “only achieved the level of statistical significance at +4 h”. Besides, the “nociceptive threshold (CYP-induced allodynia)” value was “increase in the nociceptive threshold” in series [2] (+2 hr, vs carrier (FIG. 6A)) and “significant at +4 hr” in series [2] (+4 hr, vs carrier (FIG. 6B)). Also, the “visceral pain induced” value in series [2] (+2 hr) is listed as “reduced the visceral pain”; in series [2] (+4 hr), “only achieving the level of significance at +4 hr”.
Consider `O=P1(N(CCCl)CCCl)NCCCO1` (stereo not shown) [cyclophosphamide, reference compound], for which the “nociceptive threshold after CYP vs baseline response” value in series [2] (CYP 150 mg/kg i.p., carrier-treated group, 2 hours and 4 hours post injection (FIG. 2A)) is “significant decrease in the nociceptive threshold”. In addition, the “nociceptive scores after CYP vs baseline response” value in series [2] (CYP 150 mg/kg i.p., carrier-treated group, 2 hours and 4 hours post injection (FIG. 2B)) was “significant increase in the nociceptive scores”. In series [1] (carrier-treated rats, intraperitoneal cyclophosphamide, 10 g before administration (FIG. 1B)), the “pain tolerance threshold (nociceptive threshold) after cyclophosphamide” value amounted to 3 g.
For the molecule di-NMN [Compound B], the “nociceptive scores (CYP-induced visceral pain)” value in series [2] (+2 hr) is on record as “no effect was observed”; in series [2] (+4 hr), “significant decrease in the nociceptive scores”. In addition, the “nociceptive threshold (CYP-induced allodynia)” value is listed as “no effect” in series [2] (+2 hr, vs carrier (FIG. 6A)) and “significant increase in the nociceptive threshold” in series [2] (+4 hr, vs carrier (FIG. 6B)). Besides, the “visceral pain induced” value in series [2] (+2 hr) was “no beneficial effect”; in series [2] (+4 hr) it was “significant anti-nociceptive activity”.
